Key:
Assay in all cases: relative viability (nuclei count vs DMSO), 5 days (fraction); higher = more cells survive
[1] = system: COR-L 105
How it was run: (§1)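 Lung cancer cell lines in 1536-well plates got either a single drug or a fixed anchor-drug dose together with five library-drug doses (not always all listed) in √10 steps, by pin tool, on the day after seeding. Nuclei were counted after 5 days, and relative viability is the treated-to-vehicle ratio of nuclei counts. Values are medians of duplicate plates.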

[2] = system: NCI-H1944
How it was run: as §1

[3] = system: SK-LU-1
How it was run: as §1

[4] = system: LU99A
How it was run: as §1

[5] = system: NCI-H1793
How it was run: as §1

[6] = system: A-427
How it was run: as §1

[7] = system: NCI-H1755
How it was run: as §1

[8] = system: HCC-366
How it was run: as §1

[9] = system: LC-2-ad
How it was run: as §1

[10] = system: NCI-H2170
How it was run: as §1

[11] = system: NCI-H1792
How it was run: as §1

[12] = system: HCC-78
How it was run: as §1

[13] = system: HOP-62
How it was run: as §1

[14] = system: NCI-H1915
How it was run: as §1

[15] = system: NCI-H1975
How it was run: as §1

[16] = system: NCI-H2085
How it was run: as §1

[17] = system: LCLC-97TM1
How it was run: as §1

[18] = system: NCI-H460
How it was run: as §1

[19] = system: UMC-11
How it was run: as §1

[20] = system: LXF-289
How it was run: as §1

[21] = system: EPLC-272H
How it was run: as §1

SMILES: Clc1ccc(Nc2nnc(Cc3ccncc3)c3ccccc23)cc1 [Vatalanib] + CC1(C)CCC(c2ccc(Cl)cc2)=C(CN2CCN(c3ccc(C(=O)NS(=O)(=O)c4ccc(N[C@H](CCN5CCOCC5)CSc5ccccc5)c(S(=O)(=O)C(F)(F)F)c4)cc3)CC2)C1 [Navitoclax] (partner 0.5 µM)
- relative viability ([1]; first compound 0.04 µM): 1.47
- relative viability ([1]; first compound 0.1265 µM): 0.928
- relative viability ([1]; first compound 0.4 µM): 0.692
- relative viability ([1]; first compound 1.265 µM): 0.766
- relative viability ([1]; first compound 4 µM): 0.715
- relative viability ([2]; first compound 0.04 µM): 1.01
- relative viability ([2]; first compound 0.1265 µM): 1.02
- relative viability ([2]; first compound 0.4 µM): 1.06
- relative viability ([2]; first compound 1.265 µM): 1.08
- relative viability ([2]; first compound 4 µM): 1.06
- relative viability ([3]; first compound 0.04 µM): 0.755
- relative viability ([3]; first compound 0.1265 µM): 0.594
- relative viability ([3]; first compound 0.4 µM): 0.742
- relative viability ([3]; first compound 1.265 µM): 0.832
- relative viability ([3]; first compound 4 µM): 0.82
- relative viability ([4]; first compound 0.04 µM): 0.763
- relative viability ([4]; first compound 0.1265 µM): 0.719
- relative viability ([4]; first compound 0.4 µM): 1.11
- relative viability ([4]; first compound 1.265 µM): 0.855
- relative viability ([4]; first compound 4 µM): 0.859
- relative viability ([5]; first compound 0.04 µM): 0.452
- relative viability ([5]; first compound 0.1265 µM): 0.435
- relative viability ([5]; first compound 0.4 µM): 0.498
- relative viability ([5]; first compound 1.265 µM): 0.318
- relative viability ([5]; first compound 4 µM): 0.502
- relative viability ([6]; first compound 0.04 µM): 0.998
- relative viability ([6]; first compound 0.1265 µM): 0.92
- relative viability ([6]; first compound 0.4 µM): 0.867
- relative viability ([6]; first compound 1.265 µM): 0.794
- relative viability ([6]; first compound 4 µM): 0.98
- relative viability ([7]; first compound 0.04 µM): 1.06
- relative viability ([7]; first compound 0.1265 µM): 0.972
- relative viability ([7]; first compound 0.4 µM): 1.03
- relative viability ([7]; first compound 1.265 µM): 0.821
- relative viability ([7]; first compound 4 µM): 0.993
- relative viability ([8]; first compound 0.04 µM): 1.09
- relative viability ([8]; first compound 0.1265 µM): 0.816
- relative viability ([8]; first compound 0.4 µM): 1.25
- relative viability ([8]; first compound 1.265 µM): 1.03
- relative viability ([8]; first compound 4 µM): 0.991
- relative viability ([9]; first compound 0.04 µM): 0.415
- relative viability ([9]; first compound 0.1265 µM): 0.456
- relative viability ([9]; first compound 0.4 µM): 0.558
- relative viability ([9]; first compound 1.265 µM): 0.412
- relative viability ([9]; first compound 4 µM): 0.529
- relative viability ([10]; first compound 0.04 µM): 0.584
- relative viability ([10]; first compound 0.1265 µM): 0.674
- relative viability ([10]; first compound 0.4 µM): 0.621
- relative viability ([10]; first compound 1.265 µM): 0.51
- relative viability ([10]; first compound 4 µM): 0.589
- relative viability ([11]; first compound 0.04 µM): 0.648
- relative viability ([11]; first compound 0.1265 µM): 0.611
- relative viability ([11]; first compound 0.4 µM): 0.688
- relative viability ([11]; first compound 1.265 µM): 0.678
- relative viability ([11]; first compound 4 µM): 0.624
- relative viability ([12]; first compound 0.04 µM): 0.714
- relative viability ([12]; first compound 0.1265 µM): 0.76
- relative viability ([12]; first compound 0.4 µM): 0.888
- relative viability ([12]; first compound 4 µM): 0.72
- relative viability ([13]; first compound 0.04 µM): 1.05
- relative viability ([13]; first compound 0.1265 µM): 0.958
- relative viability ([13]; first compound 0.4 µM): 1.07
- relative viability ([13]; first compound 1.265 µM): 0.949
- relative viability ([13]; first compound 4 µM): 1.07
- relative viability ([14]; first compound 0.04 µM): 0.805
- relative viability ([14]; first compound 0.1265 µM): 0.796
- relative viability ([14]; first compound 0.4 µM): 0.771
- relative viability ([14]; first compound 1.265 µM): 0.794
- relative viability ([14]; first compound 4 µM): 0.779
- relative viability ([15]; first compound 0.04 µM): 1.09
- relative viability ([15]; first compound 0.1265 µM): 1
- relative viability ([15]; first compound 0.4 µM): 1.17
- relative viability ([15]; first compound 1.265 µM): 0.945
- relative viability ([15]; first compound 4 µM): 0.815
- relative viability ([16]; first compound 0.04 µM): 1.12
- relative viability ([16]; first compound 0.1265 µM): 1.25
- relative viability ([16]; first compound 0.4 µM): 1.29
- relative viability ([16]; first compound 1.265 µM): 1.05
- relative viability ([16]; first compound 4 µM): 1.01
- relative viability ([17]; first compound 0.04 µM): 0.631
- relative viability ([17]; first compound 0.1265 µM): 0.511
- relative viability ([17]; first compound 0.4 µM): 0.488
- relative viability ([17]; first compound 1.265 µM): 0.401
- relative viability ([17]; first compound 4 µM): 0.38
- relative viability ([18]; first compound 0.04 µM): 1.17
- relative viability ([18]; first compound 0.1265 µM): 1.09
- relative viability ([18]; first compound 0.4 µM): 1.11
- relative viability ([18]; first compound 1.265 µM): 1.04
- relative viability ([18]; first compound 4 µM): 1.11
- relative viability ([19]; first compound 0.04 µM): 0.274
- relative viability ([19]; first compound 0.1265 µM): 0.367
- relative viability ([19]; first compound 0.4 µM): 0.303
- relative viability ([19]; first compound 1.265 µM): 0.29
- relative viability ([19]; first compound 4 µM): 0.322
- relative viability ([20]; first compound 0.04 µM): 0.971
- relative viability ([20]; first compound 0.1265 µM): 0.901
- relative viability ([20]; first compound 0.4 µM): 0.989
- relative viability ([20]; first compound 1.265 µM): 0.852
- relative viability ([20]; first compound 4 µM): 0.899
- relative viability ([21]; first compound 0.04 µM): 1.08
- relative viability ([21]; first compound 0.1265 µM): 1.04
- relative viability ([21]; first compound 0.4 µM): 1.05
- relative viability ([21]; first compound 1.265 µM): 1.05
- relative viability ([21]; first compound 4 µM): 1.13

From the supplement of paper PMC10307832
